How the values were obtained:
human CCK-BR [1] = target: T1, human CCK-BR (Homo sapiens, UniProt P32239); assay: Inositol phosphate accumulation; assay type: cell-based; settings: for effect on inositol phosphate production (intrinsic activity): high concentrations of non-peptide ligands
T1 sequence (P32239 1-447): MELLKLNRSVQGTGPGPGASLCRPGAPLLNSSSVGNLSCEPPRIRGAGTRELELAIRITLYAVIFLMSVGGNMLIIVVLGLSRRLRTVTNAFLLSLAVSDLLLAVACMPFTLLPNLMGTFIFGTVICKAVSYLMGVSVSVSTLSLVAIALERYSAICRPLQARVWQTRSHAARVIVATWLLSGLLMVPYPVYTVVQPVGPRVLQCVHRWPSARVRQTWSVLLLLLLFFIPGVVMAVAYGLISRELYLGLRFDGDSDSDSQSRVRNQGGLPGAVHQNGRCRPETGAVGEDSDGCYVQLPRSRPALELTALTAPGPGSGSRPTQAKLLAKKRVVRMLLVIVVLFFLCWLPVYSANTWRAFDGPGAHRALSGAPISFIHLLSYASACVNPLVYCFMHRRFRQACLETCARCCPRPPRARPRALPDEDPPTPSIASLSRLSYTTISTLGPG

human CCK-BR [2] = target: T1, human CCK-BR
human CCK-BR [3] = target: T1, human CCK-BR; settings: human CCK-BR expressed in CHO instead of COS-7 cells; cited from earlier work
gastric acid secretion = settings: cited from earlier work

SMILES	effect on inositol phosphate production (intrinsic activity) (human CCK-BR [1])	blockade of CCK-8 induced inositol phosphate formation (human CCK-BR [2])	functional classification in CHO cells (human CCK-BR [3])	inositol phosphate formation, percent of the CCK-8 induced maximum (human CCK-BR [1]) [%]	intrinsic activity in the rat (gastric acid secretion)
Cc1cccc(NC(=O)N[C@@H]2N=C(c3ccccc3)c3ccccc3N(C)C2=O)c1 [L-365,260]	little, if any, effect	–	–	–	–
Cc1cccc(NC(=O)N[C@@H]2N=C(c3ccccc3)c3ccccc3N(CC(=O)c3ccccc3C)C2=O)c1 [YM022, (R)-1-[2,3-dihydro-1-(2'-methylphenacyl)-2-oxo-5-phenyl-1H-1,4-benzodiazepin-3-yl]-3-(3-methylphenyl)urea]	little, if any, effect	completely blocks	–	–	–
CC1(C)[C@H]2CC[C@@]1(C)[C@H](OC(=O)N[C@](C)(Cc1c[nH]c3ccccc13)C(=O)NC[C@H](NC(=O)CCC(=O)O)c1ccccc1)C2 [PD 135,158]	–	–	"true" antagonist	23	–
C[C@](Cc1c[nH]c2ccccc12)(NC(=O)OC1C2CC3CC(C2)CC1C3)C(=O)NC[C@H](NC(=O)/C=C/C(=O)O)c1ccccc1 (stereo partly shown) [PD 136,450]	–	–	–	43	no appreciable intrinsic activity

Reference: PMC2578980 (The Yale Journal of Biology and Medicine, 1998)
